Read-outs that look alike come from different tables or passages of the source.

In test [1] the test system is SU-DHL-6 cells. Nature of the test: MTT assay, cell viability. Format: cell-based. The conditions noted are these: Homo sapiens, 72 h, read-out: IC50 values (nM, mean ± S.D.). As to the method: (§1) The human lymphoma cell lines (Mino, Maver-1, Jeko-1, Z-138, OCI-Ly7, OCI-Ly10, SU-DHL-6, SU-DHL-8, U2932, Daudi, Namalwa, Raji, and Ramos) were purchased from the American Type Culture Collection (ATCC, Manassas, VA, USA) and DSMZ (Braunschweig, Germany). Cells were cultured in RPMI1640 medium containing 10% foetal bovine serum, 100 U/mL penicillin, and […] streptomycin (Invitrogen, Carlsbad, CA, USA) at 37 °C in an atmosphere of 5% CO2. OCI-Ly7 and OCI-Ly10 were cultured in IMDM. Tests for mycoplasma contamination were negative. Ibrutinib and venetocalx were purchased from Selleck Chemicals (Houston, TX, USA).
(§2) Cells (2 × 10^4) were seeded into 96-well sterile plastic plates overnight and then treated with the relevant drugs. After 72 h, 15 μL of MTT solution (5 mg/mL) was added to each well and the plates were incubated for 4 h. Crystalline formazan was solubilized with 100 μL of 10% (w/v) SDS solution for 24 h. Absorbance at 595 nm was read spectrophotometrically using a microplate reader. The results represent at least three independent experiments, and the error bars signify the standard deviation from the mean. The IC50 values were determined using GraphPad Prism software (GraphPad, Inc., La Jolla, CA, USA).

Test [2] relates to Z-138 cells. Nature of the test: MTT assay, cell viability. Format: cell-based. Conditions: Homo sapiens, 72 h, read-out: IC50 values (nM, mean ± S.D.). As to the method:
as §1, §2
Background: Formazan colour is commonly taken as a measure of viable cells.

Test [3] deals with Maver-1 cells. Description: MTT assay, cell viability. Format: cell-based. Conditions: Homo sapiens, Maver1, 72 h, read-out: IC50 values (nM, mean ± S.D.). The procedure:
as §1, §2

For test [4], the system named is U2932 cells. Description: MTT assay, cell viability. In kind it is cell-based. The conditions noted are these: Homo sapiens, 72 h, read-out: IC50 values (nM, mean ± S.D.). The procedure:
as §1, §2

In test [5] the test system is OCI-Ly10 cells. Nature of the test: MTT assay, cell viability. Format: cell-based. The conditions noted are these: Homo sapiens, 72 h, read-out: IC50 values (nM, mean ± S.D.). The procedure: as §1, §2
Test [6] concerns Mino cells. Description: MTT assay, cell viability. Format: cell-based. Conditions: Homo sapiens, 72 h, read-out: IC50 values (nM, mean ± S.D.). The procedure: as §1, §2
In test [7] the test system is Jeko-1 cells. Nature of the test: MTT assay, cell viability. The conditions noted are these: Homo sapiens, 72 h, read-out: IC50 values (nM, mean ± S.D.). In kind it is cell-based. The procedure:
as §1, §2

For test [8], the system named is venetoclax-resistant cells (Mino/VR-1, Mino/VR-2, Maver-1/VR-1, Maver-1/VR-2). Nature of the test: MTT assay in cells with acquired resistance to venetoclax. Format: cell-based, human. Conditions: all resistant cells vs parental Mino and Maver-1, 72 h. The procedure: Maver-1/VR cells were established by chronic, repeated exposure to increasing venetoclax doses up to 1 μM for more than 8 months. Maver-1/VR cells were cloned by single-cell culture, and these resistant sublines were designated as Maver-1/VR-1 and Maver-VR-2. In all studies, resistant cells were cultured in drug-fee medium for >1 week to eliminate the effects of venetoclax. The genetic identity of each subclone with the parental cells was verified by short tandem repeat (STR) analysis conducted at Cosmogenetech (Cosmogenetech co. Ltd., Seoul, Korea) according to established protocols.
as §2

For test [9], the system named is patients with relapsed or refractory MCL. Further details: method as in PMID 28095146. The conditions noted are these: phase I first-in-human study; cited from earlier work.
For test [10] the test system is unchanged. Further details: method as in PMID 23782157. Conditions: cited from earlier work.

Take `CC1(C)CCC(CN2CCN(c3ccc(C(=O)NS(=O)(=O)c4ccc(NCC5CCOCC5)c([N+](=O)[O-])c4)c(Oc4cnc5[nH]ccc5c4)c3)CC2)=C(c2ccc(Cl)cc2)C1` [Venetoclax, venetoclax]: the IC50 in test [1] is 66.9 nM; in test [2], above 1000 nM; in test [3] it was 2.5 ± 0.4 nM; in [4] it was 121 nM; in test [5] it was 35.3 nM; in test [6] it was 275 ± 62.9 nM. Besides, the IC50 in test [7] was above 1000 nM. In addition, the “fold higher resistance to venetoclax than the parental cells” value in test [8] was 10–100 fold. In addition, the “best overall response rate” value in test [9] was 75%. Also, in [9], the complete response rate is recorded as 21%. Also, the median progression-free survival in test [9] was 14 months.
Regarding `C=CC(=O)N1CCC[C@@H](n2nc(-c3ccc(Oc4ccccc4)cc3)c3c(N)ncnc32)C1` [Ibrutinib, ibrutinib], the IC50 was above 10000 nM in test [2], above 10000 nM in [3], above 1000 nM in [6] and above 10000 nM in test [7]. Further, the “best overall response rate” value in [10] is given as 68%. Also, the complete response rate in test [10] is listed as 21%. In [10], the median progression-free survival is listed as 13.9 months.

Usually IC50 stands for the point on the concentration scale where inhibition reaches its midpoint.

The values are drawn from publication PMC6510728, “Efficacy of the novel CDK7 inhibitor QS1189 in mantle cell lymphoma” (Scientific Reports, 2019).
